The record followed here is patent US6291458A, “Morpholinobenzamide salts” (AstraZeneca AB, priority 1997, dated 2001).

Series [1] is described as follows: Solubility determination in purified water at 25° C. Type of series: physicochemical. The note with it: HPLC assay. As to the method:
Excess of (R)-N-[5-methyl-8-(4-methylpiperazin-1-yl)-1,2,3,4-tetrahydro-2-naphthyl]- 4-morpholinobenzamide or it's corresponding salts was added to purified water. The solution was agitated overnight in a water bath, kept at 25° C. by using a thermostat (Julabo SW and U3, 60 strokes/min). The saturated solution was centrifuged and filtered through a 0.45 .quadrature.m Gelman GHP Acrodisc® 13 filter, diluted and assayed by HPLC.

Series [2] can be described thus: Solubility and release rate of the base (background statement). The series is classed as physicochemical. The note with it: base form.
Setting [3] is: water, salts, read-out: Solubility mg/mL (Solubility in Water at 25° C. for different salts).
Where [4] appears, read: rate is different in the stomach and the intestines.

In brackets after ≈: the same amount, converted by molar mass. Where two headings read alike, the source gives them in different places.

As for `Br.Br.Cc1ccc(N2CCN(C)CC2)c2c1CC[C@@H](NC(=O)c1ccc(N3CCOCC3)cc1)C2` [Dihydrobromide, (R)-N-[5-methyl-8-(4-methylpiperazin-1-yl)-1,2,3,4-tetrahydro-2-naphthyl]-4-morpholinobenzamide dihydrobromide], in series [1] (setting [3]), the solubility turned out to be 4.6 mg/mL. Regarding `Cc1ccc(N2CCN(C)CC2)c2c1CC[C@@H](NC(=O)c1ccc(N3CCOCC3)cc1)C2` [Salicylate, (R)-N-[5-Methyl-8-(4-methylpiperazin-1-yl)-1,2,3,4-tetrahydro-2-naphthyl]-4-morpholinobenzamide Salicylate], the “Solubility mg/mL (Solubility in Water at 25° C. for different salts)” value in series [1] (salts) was 0.29 mg/mL. On the same count and under the same terms, as for `Cc1ccc(N2CCN(C)CC2)c2c1CC[C@@H](NC(=O)c1ccc(N3CCOCC3)cc1)C2` [L-Ascorbate, (R)-N-[5-Methyl-8-(4-methylpiperazin-1-yl)-1,2,3,4-tetrahydro-2-naphthyl]-4-morpholinobenzamide L-Ascorbate], the figure is 4.2 mg/mL.

Turning to `C[C@H](O)C(=O)O.Cc1ccc(N2CCN(C)CC2)c2c1CC[C@@H](NC(=O)c1ccc(N3CCOCC3)cc1)C2` [L-Lactate, (R)-N-[5-Methyl-8-(4-methylpiperazin-1-yl)-1,2,3,4-tetrahydro-2-naphthyl]-4-morpholinobenzamide L-Lactate], the solubility in series [1] (salts, read-out: Solubility mg/mL (Solubility in Water at 25° C. for different salts)) was 18.8 mg/mL.

With `Cc1ccc(N2CCN(C)CC2)c2c1CC[C@@H](NC(=O)c1ccc(N3CCOCC3)cc1)C2` [Base, (R)-N-[5-Methyl-8-(4-methylpiperazin-1-yl)-1,2,3,4-tetrahydro-2-naphthyl]-4-morpholinobenzamide], the solubility in series [1] (water, base, read-out: Solubility in Water) came out at 0.034 mg/mL (≈ 75.8 µM).

Take `Cc1ccc(N2CCN(C)CC2)c2c1CCC(NC(=O)c1ccc(N3CCOCC3)cc1)C2` (racemic) [compound of formula I, N-[5-methyl-8-(4-methylpiperazin-1-yl)-1,2,3,4-tetrahydro-2-naphthyl]-4-morpholinobenzamide]: in series [2] (setting [4]), the “pH dependence of release rate” value is “pH dependent” and the release rate result is recorded as “slow”. The solubility in water entry in series [2] (result in words) is on record as “extremely low”. In the case of `Cc1ccc(N2CCN(C)CC2)c2c1CC[C@@H](NC(=O)c1ccc(N3CCOCC3)cc1)C2.O=C(O)CO` [Glycolate, (R)-N-[5-Methyl-8-(4-methylpiperazin-1-yl)-1,2,3,4-tetrahydro-2-naphthyl]-4-morpholinobenzamide Glycolate], the solubility in series [1] (setting [3]) was more than 23.6 mg/mL.
